Assay results: ChEMBL document CHEMBL1150945, “New p-terphenyl and polyketide metabolites from the sclerotia of Penicillium raistrickii” (1998)
Activity calls are given as the source filed them. The rule behind the calls is not given here.

Assays:
[1] = system: Helicoverpa zea; test: Insecticidal activity against corn ear worm larvae at 400 to 500 ppm relative to control; type: functional
[2] = system: Carpophilus; test: Antiinsectan activity against Carpophilus hemipterus assessed as reduction in feeding rate at 400 to 500 ppm relative to control; type: functional; parameters: scale not given: the % may be the effect or the level left
[3] = system: Helicoverpa zea; test: Insecticidal activity against corn ear worm larvae at 500 ppm relative to control; type: functional
[4] = system: Staphylococcus aureus; test: Antibacterial activity against Staphylococcus aureus ATCC 29213 at 200 ug/disk by standard disk assay; type: functional; settings: read-out: IZ
[5] = system: Candida albicans; test: Antifungal activity against Candida albicans ATCC 14053 at 200 ug/disk by standard disk assay; type: functional, organism-based
[6] = system: Bacillus subtilis; test: Antibacterial activity against Bacillus subtilis ATCC 6051 at 200 ug/disk by standard disk assay; type: functional; settings: read-out: IZ

| Compound | Activity [1] [%] | Activity [2] [%] | Activity [3] [%] | zone of inhibition at 200 µg/disc [4] [mm] | Activity [5] | zone of inhibition at 200 µg/disc [6] [mm] |
| --- | --- | --- | --- | --- | --- | --- |
| COC1=CC(=O)C[C@@H](C)[C@]12Oc1c(Cl)c(OC)cc(OC)c1C2=O [GRISEOFULVIN] | 70 | 30 | – | – | – | – |
| COc1c(-c2ccc(O)c(O)c2)cc(O)c(-c2ccc(O)c(O)c2)c1O | – | – | 28 | 13 | inactive | – |
| Cc1cc(O)c(O)c2oc3cc(O)cc(O)c3c(=O)c12 | – | – | – | 11 | inactive | 12 |
| COc1c(-c2ccc(O)c(O)c2)cc(O)c2c1oc1cc(O)c(O)cc12 | – | – | – | – | inactive | – |
